The source of these data is publication PMC6100301, “Cytotoxic and N-Acetyltransferase Inhibitory Meroterpenoids from Ganoderma cochlear” (Molecules : A Journal of Synthetic Chemistry and Natural …, 2018).

Series [1] addresses T1, recombinant NAT2 (Homo sapiens, UniProt P11245).
T1 construct: purchased Corning Company, Corning, NY, USA 456282
T1 sequence (P11245 1-290): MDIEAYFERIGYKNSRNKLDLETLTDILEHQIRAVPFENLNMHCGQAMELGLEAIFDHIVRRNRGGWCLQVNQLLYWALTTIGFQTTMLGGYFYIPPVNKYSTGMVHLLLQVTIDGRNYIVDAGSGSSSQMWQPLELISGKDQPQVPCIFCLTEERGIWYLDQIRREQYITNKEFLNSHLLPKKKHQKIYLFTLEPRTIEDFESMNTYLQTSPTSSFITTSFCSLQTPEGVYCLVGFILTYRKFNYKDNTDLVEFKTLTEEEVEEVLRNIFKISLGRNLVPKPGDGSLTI
In words: N-Acetyltransferase (NAT) inhibition, fluorescent probe assay. In kind it is biochemical. The settings on record: 30 min incubation; for NAT2 inhibition at 10 μM: positive control quercetin 10 μM (Figure 4).

In series [2] the test system is H1975 human lung cancer cell line. In words: Cytotoxicity, CCK-8 cell viability assay. Format: cell-based. The settings on record: for Cytotoxic activity against H1975 cells at 40 μM: screening (Figure S46); for IC50: Homo sapiens, NCI-H1975, H1975 cells, CCK-8 assay, 24 h drug treatment. The procedure: (§1) All the isolated meroterpenoids were evaluated for their cytotoxic activity against three human lung cancer cell lines (H1975, PC9, A549). […] Besides, 2 and 5 are also found to be active against H1975 and PC9 cells at 40 μM. With this, the cytotoxic potency of 2 and 5 toward three cancer cell lines were further determined using the CCK-8 assay.
(§2) The human NSCLC cell line (NCL-H1975) was purchased from Shanghai Cell Bank of Chinese Academy of Sciences, (Shanghai, China). PC9 and A549 were obtained from American Type Culture Collection (ATCC, Manassas, VA, USA). Cells were cultured in DMEM (Gibco, Grand Island, NY, USA) with 4.5 g/L glucose and 10% FBS (Gibco, Grand Island, NY, USA). Erlotinib used in the experiments were purchased from Selleck (Selleck Chemicals, Houston, TX, USA). Cytotoxicity was determined using the previously described method. Three human lung cancer cell lines were incubated in 96-well plates (5000 cells/well) respectively to attach overnight and then exposed to drug treatments for additional 24 h. And the CCK solution was added, after 2 h of incubation, the absorbance was measured at a wavelength of 450 nm. Cell viability was measured by a TransDetect® Cell Counting Kit (TransGen Biotech, Beijing, China). The IC50 values were calculated using the GraphPad Prism 5.0 (GraphPad Software, San Diego, CA, USA).

Series [3] has as its system A549 human lung cancer cell line. The experiment in a line: Cytotoxicity, CCK-8 cell viability assay. Format: cell-based. The settings on record: for Cytotoxic activity against A549 cells at 40 μM: screening (Figure S46); for IC50: Homo sapiens, A549 cells, CCK-8 assay, 24 h drug treatment. The procedure: as §1, §2
In general terms: Tetrazolium assays rely on reduction of a dye to a coloured formazan, in cell work by metabolically active cells.

Series [4] has as its system PC9 human lung cancer cell line. In words: Cytotoxicity, CCK-8 cell viability assay. In kind it is cell-based. The note with it: for Cytotoxic activity against PC9 cells at 40 μM: screening (Figure S46); for IC50: Homo sapiens, PC-9, PC9 cells, CCK-8 assay, 24 h drug treatment. The procedure:
as §1, §2

For the compound `CC(C)=CCCC(C)=CCCC1=C[C@@](c2cc(O)ccc2O)(c2oc(-c3cc(O)ccc3O)cc2CCC=C(C)CCC=C(C)C)OC1=O` [(−)-1, (−)-gancochlearol C], the “NAT2 inhibition at 10 μM” value in series [1] is “could inhibit NAT2”.

`CC(C)=CCC/C(C)=C/CC/C(=C/Cc1cc(O)ccc1O)CO` [Compound 5, ganomycin F]: in series [2], the “Cytotoxic activity against H1975 cells at 40 μM” value is recorded as “active” and inhibition was half-maximal at 19.5 µM (IC50). For the same compound, in series [3], the “Cytotoxic activity against A549 cells at 40 μM” value is “most active” and half-maximal inhibition (IC50) required 21.6 µM. In series [4], the “Cytotoxic activity against PC9 cells at 40 μM” value is on record as “active” and the IC50 (as a rule, the midpoint of a concentration-inhibition curve) came to 35.7 µM.

`CC(C)=CCCC(C)=CCCC1=C[C@](c2cc(O)ccc2O)(c2oc(-c3cc(O)ccc3O)cc2CCC=C(C)CCC=C(C)C)OC1=O` [(+)-1, (+)-gancochlearol C]: the “NAT2 inhibition at 10 μM” value in series [1] is on record as “more potent than quercetin”. Besides, the IC50 in series [1] (0.5-10 μM, read-out: IC50 toward NAT2) turned out to be 5.29 µM.

For the compound `CC(=O)OC/C(=C\Cc1cc(O)ccc1O)CC/C=C(\C)CCC=C(C)C` [Compound 2, Gancochlearol D], in series [2], the “Cytotoxic activity against H1975 cells at 40 μM” value is on record as “active” and the IC50 was 32.4 µM. In addition, in series [3], the “Cytotoxic activity against A549 cells at 40 μM” value is given as “cytotoxic” and half-maximal inhibition (IC50) required 30.7 µM. Besides, in series [4], the “Cytotoxic activity against PC9 cells at 40 μM” value is given as “active” and half-maximal inhibition (IC50) required 40.6 µM.

Regarding `C#Cc1cccc(Nc2ncnc3cc(OCCOC)c(OCCOC)cc23)c1` [Erlotinib, reference compound], the IC50 in series [2] came out at 7.66 µM; in series [3], 4.59 µM; in series [4], 0.085 µM.
